In patent US7842683B2, “Neurotherapeutic compositions and method” (Revaax Pharmaceuticals, LLC, priority 1999, dated 2010):

How the values were obtained:
male golden hamsters = assay: Resident/intruder paradigm of offensive aggression; format: in vivo, Syrian golden hamsters (Mesocricetus auratus); conditions: D vs L isomer, 50 μg/kg IP
Protocol: Male Syrian golden hamsters (Mesocricetus auratus) (140-150 g) obtained from Harlan Sprague-Dawley Laboratories (Indianapolis, Ind.) were housed individually in Plexiglas cages (24 cm×24 cm×20 cm), maintained on a reverse light:dark cycle (14L:10D; lights on at 19:00 hr) and provided food and water ad libitum. Animals were acclimated to the reverse light:dark cycle for at least two weeks before testing. All behavioral tests were conducted during the dark phase of the circadian cycle. All animals were acquired and cared for in accordance with the guidelines published in the Guide for the Care and Use of Laboratory Animals (National Institutes of Health Publications No. 85-23, Revised 1985).
(§1) Agonistic behavior can be classified as either offensive or defensive aggression (Blanchard and Blanchard, 1977; Adams, […]; Albert and Walsh, 1984). Offensive aggression is characterized by the aggressor initiating an attack on an opponent, while defensive aggression lacks active approach. Both types of aggression have their own unique neurobehavioral systems. The stimuli that elicit offensive and defense attack are different, as are the sequences of behaviors that accompany each agonistic response. […] Offensive aggression is easily studied using male golden hamsters tested in a resident/intruder paradigm, an established model of offensive aggression (Ferris and Potegal 1988). Placing an unfamiliar male hamster into the home cage of another male hamster elicits a well-defined sequence of agonistic behaviors from the resident that includes offensive aggression.
(§2) Hamsters are nocturnal and as such all behavioral tests were performed during the first four hrs of the dark phase under dim red illumination. The resident was scored for offensive aggression, e.g., latency to bite the intruder, the total number of bites, total contact time with the intruder and flank marking over a 10 min test period (Ferris and Potegal, 1988). Flank marking is a form of olfactory communication in which a hamsters arches its back and rubs pheromone producing flank glands against objects in the environment (Johnson, 1986).
Parametric data, i.e., latencies and contact time, were analyzed with a one-way ANOVA followed by Newman-Keuls post hoc tests. Non parametric data, i.e., number of bites and flank marks, were analyzed with Kruskal-Wallis tests followed by Mann-Whitney U tests to determine differences between groups. Two sample comparisons were analyzed with paired and unpaired t-Tests for parametric data and Wilcoxon and Mann-Whitney Tests for paired and unpaired non-parametric data, respectively.
as §1, with “by an” for “by the”, “an opponent; while,” for “an opponent, while”, “Potegal 1988) in the context of defending the home burrow.” for “Potegal 1988).”
as §2, with “Flank marking is a form of olfactory communication in which a hamsters arches its back and rubs pheromone producing flank glands against objects in the environment (Johnson, 1986).” left out

[1] = human, in vivo; cited from earlier work
bacteria = conditions: cited from earlier work

In the case of CO[C@@]1(NC(=O)C(C(=O)O)c2ccc(O)cc2)C(=O)N2C(C(=O)O)=C(CSc3nnnn3C)CO[C@@H]21 (stereo partly shown) [D Mox], the contact time (male golden hamsters) is reported as “no significant difference”, the flank marking (male golden hamsters) is reported as “no significant difference” and the “isomer affecting offensive aggressive behavior” value (male golden hamsters) is reported as “active isomer”. The bite latency (male golden hamsters; 90 min) was “significantly increased”, the number of bites (male golden hamsters; 90 min) was “reduced” and the “unbound fraction to plasma protein vs L isomer” value [1] was “greater unbound fraction”. For the same molecule, the antibacterial activity (bacteria) was “has antibacterial activity”.
